Reference: patent US20200147039A1, “COMPOUNDS USEFUL IN INHIBITING HUMAN TREFOIL FACTOR 3” (NATIONAL UNIVERSITY OF SINGAPORE, priority 2017, published 2020)

Columns and labels:
[1] = tested on: BxPC-3; assay: AlamarBlue cell viability assay, BxPC-3; format: cell-based; conditions: Homo sapiens, Pancreatic
Experimental: (§1) The human immortalized mammary epithelial cell lines, MCF10A, and MCF12A; and immortalized hepatocellular epithelial cell line, LO2 were obtained from the American Type Culture Collection (ATCC, Rockville, Md.) and were cultured as per ATCC propagation instructions. MC cell lines, MCF7, T47D, BT474, BT20, MDA-MB-361, MDA-MB-436, MDA-MB-468, and MDA-MB-231; endometrial carcinoma cell lines, Ishikawa, ECC1, RL95-2 and AN3; hepatocellular carcinoma cell lines, Hep3B, H2P, and H2M; colon carcinoma cell lines, DLD-1, and Caco-2; and prostate carcinoma cell lines, PC3, LNCaP, and DU145 were obtained from the American Type Culture Collection (ATCC, Rockville, Md.). Pancreatic carcinoma cell lines, AsPC-1 and BxPC-3; Lung carcinoma cell lines, HCC-827, NCI-H1975, HCC-4006, PC-14, and NCI-H1299; and Thyroid carcinoma cell lines HTH83, CAL62, T238, and OGK-M were obtained from Prof. H. Phillip Koeffler's laboratory at The Cancer Science Institute of Singapore, National University of Singapore (NUS). Gastric carcinoma cell lines, AGS, MKN-28, MKN-45, and A2-528 were obtained from Prof. […]
(§2) In table 9 IC50 values of compound 43 compound library in several cancer cell lines are tabulated, using an AlamarBlue® cell viability assay as previously described in Pandey V et al., Breast Cancer Res. 2014; 16(5):429. Statistical analysis was assessed by using GraphPad Prism5. […]

[2] = tested on: HCC4006; assay: AlamarBlue cell viability assay, HCC4006; format: cell-based; conditions: Homo sapiens, Lung
Experimental: as §1, §2

[3] = tested on: H2P; assay: AlamarBlue cell viability assay, H2P; format: cell-based; conditions: Homo sapiens, Hepatocellular
Experimental: as §1, §2

[4] = tested on: MCF7 cells with forced expression of TFF3; assay: MCF7 cells with forced expression of TFF3: western blot, cell viability, caspase 3/7 (FIG. 5); format: cell-based, human; conditions: MCF7 cells with forced expression of TFF3, 5 μM
Experimental: (A) Western blot analysis was used to assess the levels of pSTAT3, STAT3, BCL2, and CCND1 protein in MCF7 cells with forced expression of TFF3 after treatment with compound 43 (5 μM) and Stattic (2 μM) was used to treat cells. Depletion of STAT3 expression was achieved using transient-transfection of small interfering (si)-RNA (Invitrogen, Singapore) directed to STAT3 transcript as previously described in Pandey V et al., Breast Cancer Res. 2014; 16(5):429. Anti-TFF3 polyclonal antibody was used as previously described (ibid). Soluble whole cell extracts were run on a SDS-PAGE and immunoblotted as previously described (ibid). β-ACTIN was used as input control for cell lysate. The sizes of detected protein bands in kDa are shown on the right side (B) Cell viability and (C) caspase 3/7 activities in MCF7 cells with forced expression of TFF3 after treatment with compound 43 (5 μM) and Stattic (2 μM) was used to treat cells. […] Evaluated using ApoTox-Glo™ Triplex Assay Kit, Promega (Singapore) according to manufacturer's instructions. Cell viability fluorescence is measured at 400Ex/505Em, while apoptosis (caspase 3/7 activities) is determined with the luminescence measurement. […] Statistical significance was assessed by using an unpaired two-tailed Student's t test (P<0.05 was considered as significant) using GraphPad Prism5. […]

[5] = tested on: HTH83; assay: AlamarBlue cell viability assay, HTH83; format: cell-based; conditions: Homo sapiens, Thyroid
Experimental: as §1, §2

[6] = tested on: TFF3-high expressing mammary carcinoma (MC) cell lines; assay: AlamarBlue viability and Annexin V-FITC/PI flow cytometry in mammary carcinoma cell lines (FIG. 1); format: cell-based, human
Description: (A) Inhibitory concentration 50% (IC50) values for compound 43 in the MC cell lines are tabulated, using an AlamarBlue™ cell viability assay as previously described in Pandey V et al., Breast Cancer Res. 2014; 16(5):429. (B) Measured dose-dependent manner effect of compound 43 on the viability of MC cells (left-side, TFF3-high and right, TFF3-low) using AlamarBlue™ viability assay as previously described (ibid). (C) Apoptotic cell death of mammary carcinoma cell lines measured after treatment with 10 μM compound 43 using flow cytometry analysis at 24 hour as described previously in Keerthy H K et al., PloS one. 2014; 9(9):e107118. Annexin V-FITC staining is indicated on the X-axis and PI staining on the Y-axis. […] Acquisition of Annexin V and PI data were represented as percentage (%) in each quadrant. Note: CM, conditioned media; MCF10A and MCF12A, non-transformed immortalized-mammary epithelial cell line. Points are mean of triplicate experiments; bars, ±SD. Statistical significance was assessed by using an unpaired two-tailed Student's t test (P<0.05 was considered as significant) using GraphPad Prism5. Columns are mean of triplicate experiments; bars, ±SD. **P<0.001, *P<0.05.

[7] = tested on: ECC1; assay: AlamarBlue cell viability assay, ECC1; format: cell-based; conditions: Homo sapiens, ECC-1, Endometrial
Experimental: as §1, §2

[8] = tested on: high-TFF3 expression MC cells; assay: ApoTox-Glo Triplex Assay and western blot (FIG. 2); format: cell-based, human; conditions: 10 μM
Experimental: Effect of compound 43 (10 μM) on cell viability of high-TFF3 MC cell lines. (A) Cell viability (B) caspase 3/7 activities and (C) cytotoxicity was evaluated using ApoTox-Glo™ Triplex Assay Kit Promega (Singapore) according to manufacturer's instructions. Cell viability fluorescence is measured at 400Ex/505Em, cytotoxicity fluorescence is measured at 485Ex/520Em, while apoptosis (caspase 3/7 activities) is determined by luminescence measurement. (D) Western blot analysis was used to assess the level of various protein markers and protein activity in high-TFF3 expression MC cells after treatment with compound 43. Soluble whole cell extracts were run on a SDS-PAGE and immunoblotted as previously described in Pandey V et al., Breast Cancer Res. 2014; 16(5):429. β-ACTIN (ACTB) was used as input control for cell lysate. The sizes of detected protein bands in kDa are shown on the left side. Statistical significance was assessed by using an unpaired two-tailed Student's t test (P<0.05 was considered as significant) using GraphPad Prism5. Columns are mean of triplicate experiments; bars, ±SD. **P<0.001, *P<0.05.

For Cc1cc(-c2ccc(C3C(C#N)=C(N)Oc4c3c(=O)oc3ccccc43)cc2)cnc1F (stereo not drawn) [Compound 43, 2-Amino-4-(4-(6-fluoro-5-methylpyridin-3-yl)phenyl)-5-oxo-4H,5H-pyrano[3,2-c]chromene-3-carbonitrile], the IC50 [1] was 2.56 µM, the IC50 [2] was 3.92 µM and the IC50 [3] was 11.3 µM. The TFF3-stimulated effects [4] was “reverted”, the IC50 [5] was 0.56 µM and the apoptosis ([6]; 10 μM, 24 hour, Annexin V-FITC/PI flow cytometry) was “stimulates apoptosis”. The cell viability ([6]; AlamarBlue) was “suppresses cell viability”, the IC50 [7] was 4.64 µM and the intrinsic apoptosis [8] was “stimulates intrinsic apoptosis”.
